This note sets out measurements from patent US12583839B2, “PD-L1 antagonist compound” (ADLAI NORTYE BIOPHARMA CO., LTD., priority 2019, dated 2026).

In the assay the target is T1, PD-1/PD-L1 (Homo sapiens, UniProt Q9NZQ7).
T1 construct: 60535 (PD-1/NFAT-Reporter-Jurkat); host or cells: CHO cells expressing PD-L1; Jurkat cells expressing PD-1
Put plainly: Detection of biological activity of PD-1/PD-L1 signaling inhibition at the cellular level (NFAT luciferase reporter, PD-1/NFAT-Reporter-Jurkat cells co-cultured with TCR activator/PD-L1-CHO cells). The note with it: PD-1/NFAT-Reporter-Jurkat + TCR activator/PD-L1-CHO co-culture, 6 hours; Atezolizumab as positive control. The format is cell-based. An excerpt:
Detection of Biological Activity of PD-1/PD-L1 Signaling Inhibition at the Cellular Level
This detection method is used for evaluating the biological activity of the compounds described in the present invention at the cellular level.
This detection method uses the luciferase reporter gene method to detect the biological activity of the compound on the inhibition of PD-1/PD-L1 signal at the cellular level. PD-1/NFAT—Reporter—Jurkat cells stably express human PD-1 and express the luciferase reporter gene regulated by NFAT elements; TCR activator/PD-L1-CHO cells stably express human PD-L1 and TCR activator elements. When the two cell lines were co-cultured, the binding of PD-1/PD-L1 inhibited the TCR signaling pathway, thereby inhibiting the expression of the downstream NFAT-controlled luciferase reporter gene. When PD-1/PD-L1 antibody or inhibitor is added, this inhibitory effect is reversed and luciferase is expressed, so that the effect of PD-1/PD-L1 inhibitor on luciferase activity can be detected.
PD-1/NFAT—Reporter—Jurkat cell (Cat: 60535) and TCR activator/PD-L1-CHO cell (Cat: 60536) were purchased from BPS Bioscience. Anti-human PD-L1 antibody (Atezolizumab, Cat: A2004) was purchased from Selleck; luciferase reporter gene expression detection kit (ONE-Glo™ Luciferase Assay System, Cat: E6120) was purchased from Promega; multifunction plate reader (SpectraMax i3x) was purchased from Molecular Devices.
The PD-1/NFAT—Reporter—Jurkat cells and TCR activator/PD-L1-CHO cells were cultured according to the routine cell culture protocol.
TCR activator/PD-L1-CHO cells were harvested and seeded into a 96-well culture plate at 35,000 cells/well in a medium volume of 100 μl and incubated overnight at 37° C. The next day, the medium was discarded, compound was added and incubated for 30 minutes, while a solvent control (dimethyl sulfoxide, DMSO, final concentration of 0.1%) and PD-L1 antibody (Atezolizumab, final concentration of about 10 nM) as positive controls were set. PD-1/NFAT-reporter-Jurkat cells were then added. After culturing for 6 hours, the luciferase activity was detected according to the instructions of the luciferase detection reagent.
Using PD-L1 antibody as a positive control, calculate the inhibition rate of PD-1/PD-L1 binding of the test compound (%)=(chemiluminescence value of compound treated wells/average value of chemiluminescence value of solvent control wells−1)/(average value of chemiluminescence value of PD-L1 antibody well/average value of chemiluminescence value of solvent control well−1)×100%.
According to the above detection method, the compounds of the present invention were evaluated for their biological activity at the cellular level, and the activity results are shown in the following table.
(Reporter assays use an easily measured gene product as a stand-in for the process of interest.)

T1 sequence (Q9NZQ7 19-290): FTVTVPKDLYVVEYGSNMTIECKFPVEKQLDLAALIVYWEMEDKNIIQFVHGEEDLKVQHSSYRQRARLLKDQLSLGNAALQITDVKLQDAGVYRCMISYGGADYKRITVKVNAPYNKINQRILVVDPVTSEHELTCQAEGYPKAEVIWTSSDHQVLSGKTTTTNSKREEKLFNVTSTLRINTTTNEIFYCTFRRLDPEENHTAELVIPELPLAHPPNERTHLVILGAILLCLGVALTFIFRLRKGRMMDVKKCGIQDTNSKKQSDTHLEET

In general, EC50 refers to the midpoint of the concentration-response curve. `COc1cc(-c2cccc(-c3cccc4c3cnn4Cc3cc(OC)c(CN(C)C4CCC(C(=O)O)CC4)cc3C#N)c2Cl)ccc1CNC[C@@H]1CCC(=O)N1` (stereo partly shown) [Compound 107]: the EC50 amounted to 20 nM. In the case of `COc1cc(-c2cccc(-c3cccc4c3cnn4Cc3cc(OC)c(CN(C)C4CCC(CC(=O)O)CC4)cc3C#N)c2Cl)ccc1CNC[C@@H]1CCC(=O)N1` (stereo partly shown) [Compound 108], the EC50 turned out to be 63 nM.

As for `COc1cc(-c2cccc(-c3cccc4c3cnn4Cc3cc(OC)c(CN(C)[C@H]4CC[C@@H](CC(=O)O)CC4)cc3Cl)c2Cl)ccc1CNC[C@@H]1CCC(=O)N1` [Compound 109], the EC50 is 44 nM. For `COc1cc(-c2cccc(-c3cccc4c3cnn4Cc3cc(OC(C)C)c(CN(C)CC4CCC(C(=O)O)CC4)cc3Cl)c2Cl)ccc1CNC[C@@H]1CCC(=O)N1` (stereo partly shown) [Compound 110] the value was 495 nM.

As to `COc1cc(Cn2ncc3c(-c4cccc(-c5ccc(CNC[C@@H]6CCC(=O)N6)cc5)c4Cl)cccc32)c(F)cc1CN(C)CC1CCC(C(=O)O)CC1` (stereo partly shown) [Compound 111], the EC50 turned out to be 1040 nM. As for `COc1cc(-c2cccc(-c3cccc4c3cnn4Cc3cc(OC)c(CN(C)CC4CCC(C(=O)O)CC4)cc3C)c2Cl)ccc1CNC[C@@H]1CCC(=O)N1` (stereo partly shown) [Compound 112], the figure is 185 nM. Turning to `COc1cc(Cn2ncc3c(-c4cccc(-c5cc(F)c(CNC[C@@H]6CCC(=O)N6)c(OC)c5)c4Cl)cccc32)c(Cl)cc1CN(C)[C@H]1C[C@H](C(=O)O)C1` [Compound 113], the EC50 turned out to be 15 nM.

Take `COc1cc(Cn2ncc3c(-c4cccc(-c5cc(F)c(CNC[C@@H]6CCC(=O)N6)c(OC)c5)c4Cl)cccc32)c(Cl)cc1CN(C)[C@H]1CC[C@H](C(=O)O)CC1` [Compound 114]: the EC50 was determined as 14 nM.

With `COc1cc(Cn2ncc3c(-c4cccc(-c5cc(F)c(CNC[C@@H]6CCC(=O)N6)c(OC)c5)c4Cl)cccc32)c(Cl)cc1CN(C)C1CCC(CC(=O)O)CC1` (stereo partly shown) [Compound 115], the EC50 came to 16 nM. For `COc1cc(Cn2ncc3c(-c4cccc(-c5cc(F)c(CNC[C@@H]6CCC(=O)N6)c(OC)c5)c4Cl)cccc32)c(Cl)cc1CN(C)C12CCC(C(=O)O)(CC1)CC2` [Compound 116] the value was 16 nM; for `COc1cc(Cn2ncc3c(-c4cccc(-c5ccc(CNC[C@@H]6CCC(=O)N6)cc5)c4Cl)cc(Cl)cc32)c(Cl)cc1CN[C@@H](CO)C(=O)O` [Compound 117], 537 nM; for `COc1cc(-c2cccc(-c3cccc4c3cnn4Cc3cc(OC)c(CN(C)CC4CCC(CC(=O)O)CC4)cc3Cl)c2Cl)ccc1CNC[C@@H]1CCC(=O)N1` (stereo partly shown) [Compound 118], 53 nM. As for `COc1cc(-c2cccc(-c3cccc4c3cnn4Cc3cc(OC)c(CN(C)C4CC(CC(=O)O)C4)cc3Cl)c2Cl)ccc1CNC[C@@H]1CCC(=O)N1` (stereo partly shown) [Compound 119], the figure is 152 nM; as for `COc1cc(-c2cccc(-c3cccc4c3cnn4Cc3cc(OC)c(CN(C)C4CCC(/C=C/C(=O)O)CC4)cc3Cl)c2Cl)ccc1CNC[C@@H]1CCC(=O)N1` (stereo partly shown) [Compound 120], 32 nM. As for `COc1cc(-c2cccc(-c3cccc4c3cnn4Cc3cc(OC)c(CN(C)C4CCC(CCC(=O)O)CC4)cc3Cl)c2Cl)ccc1CNC[C@@H]1CCC(=O)N1` (stereo partly shown) [Compound 121], the figure is 34 nM. As to `COc1cc(-c2cccc(-c3cccc4c3cnn4Cc3cc(OC)c(CN(C4CCC(C(=O)O)CC4)C4CC4)cc3Cl)c2Cl)ccc1CNC[C@@H]1CCC(=O)N1` (stereo partly shown) [Compound 122], the EC50 was found to be 320 nM. With `CCOc1cc(Cn2ncc3c(-c4cccc(-c5ccc(CNC[C@@H]6CCC(=O)N6)c(OC)c5)c4Cl)cccc32)c(Cl)cc1CN(C)C[C@H]1CC[C@H](C(=O)O)CC1` [Compound 124], the EC50 is 91 nM. Turning to `COc1cc(-c2cccc(-c3cccc4c3cnn4Cc3cc(OC)c(CN(Cc4ccccc4)[C@H]4CC[C@H](C(=O)O)CC4)cc3Cl)c2Cl)ccc1CNC[C@@H]1CCC(=O)N1` [Compound 125], the EC50 stood at 680 nM. `COc1cc(-c2cccc(-c3cccc4c3cnn4Cc3cc(OC)c(CN(CC4CC4)[C@H]4CC[C@H](C(=O)O)CC4)cc3Cl)c2Cl)ccc1CNC[C@@H]1CCC(=O)N1` [Compound 126]: the EC50 came out at 103 nM.

For `COc1cc(-c2cccc(-c3cccc4c3cnn4Cc3cc(OCC(N)=O)c(CN(C)C[C@H]4CC[C@H](C(=O)O)CC4)cc3Cl)c2Cl)ccc1CNC[C@@H]1CCC(=O)N1` [Compound 127], the EC50 came to 160 nM. For `COc1cc(-c2cccc(-c3cccc4c3cnn4Cc3cc(OCC(=O)O)c(CN(C)C[C@H]4CC[C@H](C(=O)O)CC4)cc3Cl)c2Cl)ccc1CNC[C@@H]1CCC(=O)N1` [Compound 128] the value was 391 nM. As for `COc1cc(-c2cccc(-c3cccc4c3cnn4Cc3cc(OC)c(CN(C)[C@H]4CC[C@H](C(=O)NS(C)(=O)=O)CC4)cc3Cl)c2Cl)ccc1CNC[C@@H]1CCC(=O)N1` [Compound 129], the figure is 29 nM; as for `COc1cc(Cn2ncc3c(-c4cccc(-c5cc(F)c(CNC[C@@H]6CCC(=O)N6)c(OC)c5)c4Cl)cccc32)c(Cl)cc1CN(C)C[C@H]1CC[C@H](CC(=O)O)CC1` [Compound 130], 134 nM. For `COc1cc(Cn2ncc3c(-c4cccc(-c5cc(F)c(CNC[C@@H]6CCC(=O)N6)c(OC)c5)c4Cl)cccc32)c(Cl)cc1CN(C)[C@H]1CC[C@H](CCC(=O)O)CC1` [Compound 131] the value was 40 nM; for `COc1cc(Cn2ncc3c(-c4cccc(-c5cc(F)c(CNC[C@@H]6CCC(=O)N6)c(OC)c5)c4Cl)cccc32)c(Cl)cc1CN(C)[C@H]1CC[C@H](/C=C/C(=O)O)CC1` [Compound 132], 23 nM; for `COc1cc(Cn2ncc3c(-c4cccc(-c5ccc(CNC[C@@H]6CCC(=O)N6)c(OC)n5)c4Cl)cccc32)c(Cl)cc1CN(C)C12CCC(C(=O)O)(CC1)CC2` [Compound 133], 81 nM. On to `COc1cc(-c2cccc(-c3cccc4c3cnn4Cc3cc(OC[C@@H]4CCC(=O)N4)c(CN(C)C[C@H]4CC[C@H](C(=O)O)CC4)cc3Cl)c2Cl)ccc1CNC[C@@H]1CCC(=O)N1` [Compound 134], for which the EC50 amounted to 68 nM.

On to `COc1cc(-c2cccc(-c3cccc4c3cnn4Cc3nc(OC)c(CN(C)C45CCC(C(=O)O)(CC4)CC5)cc3Cl)c2Cl)cc(F)c1CNC[C@@H]1CCC(=O)N1` [Compound 135], for which the EC50 worked out at 25 nM. As for `COc1cc(Cn2ncc3c(-c4cccc(-c5cc(F)c(CNC[C@@H]6CCC(=O)N6)c(OC)c5)c4Cl)cccc32)c(Cl)cc1CN(C)C12CC(C(=O)O)(C1)C2` [Compound 136], the figure is 240 nM. `COc1nc(-c2cccc(-c3cccc4c3cnn4Cc3nc(OC)c(CN(C)C45CCC(C(=O)O)(CC4)CC5)cc3Cl)c2Cl)ccc1CNC[C@@H]1CCC(=O)N1` [Compound 137]: the EC50 stood at 41 nM. For `COc1cc(Cn2ncc3c(-c4cccc(-c5cc(F)c(CNC[C@@H]6CCC(=O)N6)c(OC)c5)c4Cl)cccc32)c(C#N)cc1CN(C)[C@H]1C[C@H](C(=O)O)C1` [Compound 139], the EC50 was determined as 15 nM. With `COc1cc(Cn2ncc3c(-c4cccc(-c5cc(F)c(CNC[C@@H]6CCC(=O)N6)c(OC)c5)c4Cl)cccc32)c(C#N)cc1CN(C)[C@]12CC[C@@](C(=O)O)(CC1)CC2` [Compound 140], the EC50 amounted to 25 nM. With `COc1cc(Cn2ncc3c(-c4cccc(-c5cc(F)c(CNC[C@@H]6CCC(=O)N6)c(OC)c5)c4Cl)cccc32)c(C#N)cc1CN(C)[C@H]1CC[C@H](CC(=O)O)CC1` [Compound 141], the EC50 came out at 40 nM. For the compound `COc1cc(Cn2ncc3c(-c4cccc(-c5cc(F)c(CNC[C@@H]6CCC(=O)N6)c(OC)c5)c4Cl)cccc32)c([N+](=O)[O-])cc1CN(C)[C@H]1CC[C@H](C(=O)O)CC1` [Compound 142], the EC50 was determined as 37 nM. As for `COc1cc(Cn2ncc3c(-c4cccc(-c5cc(F)c(CNC[C@@H]6CCC(=O)N6)c(OC)c5)c4Cl)cccc32)c([N+](=O)[O-])cc1CN(C)[C@H]1C[C@H](C(=O)O)C1` [Compound 143], the figure is 31 nM. Regarding `COc1cc(Cn2ncc3c(-c4cccc(-c5cc(F)c(CNC[C@@H]6CCC(=O)N6)c(OC)c5)c4Cl)cccc32)c([N+](=O)[O-])cc1CN(C)[C@H]1CC[C@H](CC(=O)O)CC1` [Compound 144], the EC50 was 40 nM. As for `COc1cc(Cn2ncc3c(-c4cccc(-c5cc(F)c(CNC[C@@H]6CCC(=O)N6)c(OC)c5)c4Cl)cccc32)c([N+](=O)[O-])cc1CN(C)C12CCC(C(=O)O)(CC1)CC2` [Compound 145], the figure is 51 nM.
